Test results as given in US20040229930A1, “Formulations comprising a basic indolinone compound” (Pharmacia Italia S.p.A., priority 2002, published 2004).

Test: Bulk density determination of granules / drug substance
Format: physicochemical
Text: Generally, bulk density is the weight of a unit volume of material. Bulk density is also known as “apparent density.” Bulk density is typically expressed as a weight:volume ratio, for example, kilograms per liter (Kg/L) or grams per cubic centimeter (g/cm[…]). Bulk desntiy of a material can be measured by techniques that are well known in the art, by measuring the weight and volume of the material. See the Examples section of this application for exemplary techniques for measurement of bulk density.
The tap and bulk density determinations are performed as follows:
(a) A 250 mL glass cylinder is filled with formulation granules to the 100-200 mL volume mark.
(b) The mass of the cyclinder is recorded and the bulk density is determined by calculating the ratio of the mass of the formulation granules to the volume of the formulation granules.

Row | Structure (SMILES) | bulk density (salt by itself) | bulk density (maleate salt by itself)
1 | CCN(CC)CCNC(=O)c1c(C)[nH]c(/C=C2\C(=O)Nc3ccc(F)cc32)c1C [5-(5-fluoro-2-oxo-1,2-dihydro-indol-3-ylidenemethyl)-2,4-dimethyl-1H-pyrrole-3-carboxylic acid (2-diethylamino-ethyl)-amide] | about 0.11±0.1 | 
2 | Cc1[nH]c(/C=C2\C(=O)Nc3ccc(F)cc32)c(C)c1C(=O)NCC(O)CN1CCOCC1 (centres unmarked) [5-[(Z)-(5-fluoro-2-oxo-1,2-dihydro-3H-indol-3-ylidene)methyl]-N-[2-hydroxy-3-morpholin-4-ylpropyl]-2,4-dimethyl-1H-pyrrole-3-carboxamide] |  | 0.05 to 0.07 kg/L
